Assays:
PBMC = conditions: 12.5 µM

SMILES	Average (percentage cell inhibition), Dmastoparan MDA-MB231 12.5uM (MDA-MB-231 cells) [%]	Average (percentage cell inhibition), Mastoparan PBMC (PBMC) [%]
CC[C@H](C)[C@H](N)C(=O)N[C@@H](CC(N)=O)C(=O)N[C@@H](CC(C)C)C(=O)N[C@@H](CCCCN)C(=O)N[C@@H](CCC(=O)O)C(=O)N[C@@H](CC(C)C)C(=O)N[C@@H](C)C(=O)N[C@@H](C)C(=O)N[C@@H](CC(C)C)C(=O)N[C@@H](C)C(=O)N[C@@H](CCCCN)C(=O)N[C@@H](CCCCN)C(=O)N[C@H](C(=O)N[C@@H](CC(C)C)C(N)=O)[C@@H](C)CC [E5]	15.4865	3.135
CC[C@H](C)[C@H](N)C(=O)N[C@@H](Cc1c[nH]cn1)C(=O)N[C@@H](CC(C)C)C(=O)N[C@@H](CCCCN)C(=O)N[C@@H](C)C(=O)N[C@@H](CC(C)C)C(=O)N[C@@H](C)C(=O)N[C@@H](C)C(=O)N[C@@H](CC(C)C)C(=O)N[C@@H](C)C(=O)N[C@@H](CCCCN)C(=O)N[C@@H](CCCCN)C(=O)N[C@H](C(=O)N[C@@H](CC(C)C)C(N)=O)[C@@H](C)CC [H2]	35.1529	5.675
CC[C@H](C)[C@H](N)C(=O)N[C@@H](CC(N)=O)C(=O)N[C@@H](CC(C)C)C(=O)N[C@@H](CCCCN)C(=O)N[C@@H](C)C(=O)N[C@@H](Cc1c[nH]cn1)C(=O)N[C@@H](C)C(=O)N[C@@H](C)C(=O)N[C@@H](CC(C)C)C(=O)N[C@@H](C)C(=O)N[C@@H](CCCCN)C(=O)N[C@@H](CCCCN)C(=O)N[C@H](C(=O)N[C@@H](CC(C)C)C(N)=O)[C@@H](C)CC [H6]	1.275	-12.6494
CC[C@H](C)[C@H](N)C(=O)N[C@@H](CC(N)=O)C(=O)N[C@@H](CC(C)C)C(=O)N[C@@H](CCCCN)C(=O)N[C@@H](C)C(=O)N[C@@H](CC(C)C)C(=O)N[C@@H](C)C(=O)N[C@H](C(=O)N[C@@H](CC(C)C)C(=O)N[C@@H](C)C(=O)N[C@@H](CCCCN)C(=O)N[C@@H](CCCCN)C(=O)N[C@H](C(=O)N[C@@H](CC(C)C)C(N)=O)[C@@H](C)CC)[C@@H](C)O [T8]	35.9719	11.6569
CC[C@H](C)[C@H](N)C(=O)N[C@@H](CC(N)=O)C(=O)N[C@@H](CC(C)C)C(=O)N[C@@H](CCCCN)C(=O)N[C@@H](C)C(=O)N[C@@H](CC(C)C)C(=O)N[C@@H](C)C(=O)N[C@@H](CC(C)C)C(=O)N[C@@H](CC(C)C)C(=O)N[C@@H](C)C(=O)N[C@@H](CCCCN)C(=O)N[C@@H](CCCCN)C(=O)N[C@H](C(=O)N[C@@H](CC(C)C)C(N)=O)[C@@H](C)CC [L8]	38.4504	16.9354
CC[C@H](C)[C@H](N)C(=O)N[C@@H](CC(N)=O)C(=O)N[C@@H](CC(C)C)C(=O)N[C@@H](CCCCN)C(=O)N[C@@H](C)C(=O)N[C@@H](CC(C)C)C(=O)N[C@@H](C)C(=O)N[C@@H](C)C(=O)N[C@@H](CCC(N)=O)C(=O)N[C@@H](C)C(=O)N[C@@H](CCCCN)C(=O)N[C@@H](CCCCN)C(=O)N[C@H](C(=O)N[C@@H](CC(C)C)C(N)=O)[C@@H](C)CC [Q9]	30.6331	2.087
CC[C@H](C)[C@H](N)C(=O)N[C@@H](CC(N)=O)C(=O)N[C@@H](CC(C)C)C(=O)N[C@@H](CCCCN)C(=O)N[C@@H](C)C(=O)N[C@@H](CC(C)C)C(=O)N[C@@H](C)C(=O)N[C@@H](C)C(=O)N[C@@H](CC(C)C)C(=O)N[C@@H](C)C(=O)N[C@@H](CCCCN)C(=O)N[C@@H](CCCCN)C(=O)N[C@H](C(=O)N[C@@H](CCCNC(=N)N)C(N)=O)[C@@H](C)CC [R14]	9.085	-1.726
CC[C@H](C)[C@H](N)C(=O)N[C@@H](CC(N)=O)C(=O)N[C@@H](CC(C)C)C(=O)N[C@@H](CCCCN)C(=O)N[C@@H](C)C(=O)N[C@@H](CC(C)C)C(=O)N[C@@H](C)C(=O)N[C@@H](C)C(=O)N[C@@H](CC(C)C)C(=O)N[C@@H](C)C(=O)N[C@H](C(=O)N[C@@H](CCCCN)C(=O)N[C@H](C(=O)N[C@@H](CC(C)C)C(N)=O)[C@@H](C)CC)[C@@H](C)CC [I11]	36.5354	5.295
CC[C@H](C)[C@H](N)C(=O)N[C@@H](CC(N)=O)C(=O)N[C@@H](CC(C)C)C(=O)N[C@@H](CCCCN)C(=O)N[C@@H](C)C(=O)N[C@@H](CC(C)C)C(=O)N[C@@H](C)C(=O)N[C@@H](C)C(=O)N[C@@H](CC(C)C)C(=O)N[C@@H](C)C(=O)N[C@@H](CCCCN)C(=O)N[C@@H](CCCCN)C(=O)N[C@H](C(=O)N[C@@H](Cc1c[nH]c2ccccc12)C(N)=O)[C@@H](C)CC [W14]	56.1495	13.9862
CC[C@H](C)[C@H](N)C(=O)N[C@@H](CC(N)=O)C(=O)N[C@@H](CC(C)C)C(=O)N[C@@H](CCCCN)C(=O)N[C@@H](C)C(=O)N[C@@H](CC(C)C)C(=O)N[C@@H](C)C(=O)N[C@H](C(=O)N[C@@H](CC(C)C)C(=O)N[C@@H](C)C(=O)N[C@@H](CCCCN)C(=O)N[C@@H](CCCCN)C(=O)N[C@H](C(=O)N[C@@H](CC(C)C)C(N)=O)[C@@H](C)CC)[C@@H](C)CC [I8]	40.0855	17.9616
CC[C@H](C)[C@H](N)C(=O)N[C@@H](CC(N)=O)C(=O)N[C@@H](Cc1c[nH]cn1)C(=O)N[C@@H](CCCCN)C(=O)N[C@@H](C)C(=O)N[C@@H](CC(C)C)C(=O)N[C@@H](C)C(=O)N[C@@H](C)C(=O)N[C@@H](CC(C)C)C(=O)N[C@@H](C)C(=O)N[C@@H](CCCCN)C(=O)N[C@@H](CCCCN)C(=O)N[C@H](C(=O)N[C@@H](CC(C)C)C(N)=O)[C@@H](C)CC [H3]	10.8919	-4.438
CC[C@H](C)[C@H](N)C(=O)N[C@@H](CC(N)=O)C(=O)N[C@@H](CC(C)C)C(=O)N[C@@H](CCCCN)C(=O)N[C@@H](C)C(=O)N[C@@H](CC(C)C)C(=O)N[C@@H](CCC(N)=O)C(=O)N[C@@H](C)C(=O)N[C@@H](CC(C)C)C(=O)N[C@@H](C)C(=O)N[C@@H](CCCCN)C(=O)N[C@@H](CCCCN)C(=O)N[C@H](C(=O)N[C@@H](CC(C)C)C(N)=O)[C@@H](C)CC [Q7]	23.653	9.246
CC[C@H](C)[C@H](N)C(=O)N[C@@H](CC(N)=O)C(=O)N[C@@H](CC(N)=O)C(=O)N[C@@H](CCCCN)C(=O)N[C@@H](C)C(=O)N[C@@H](CC(C)C)C(=O)N[C@@H](C)C(=O)N[C@@H](C)C(=O)N[C@@H](CC(C)C)C(=O)N[C@@H](C)C(=O)N[C@@H](CCCCN)C(=O)N[C@@H](CCCCN)C(=O)N[C@H](C(=O)N[C@@H](CC(C)C)C(N)=O)[C@@H](C)CC [N3]	47.2847	-0.8054
CC[C@H](C)[C@H](N)C(=O)N[C@@H](CC(N)=O)C(=O)N[C@@H](CC(C)C)C(=O)N[C@@H](CCCCN)C(=O)N[C@@H](C)C(=O)N[C@@H](CC(C)C)C(=O)N[C@@H](C)C(=O)N[C@@H](C)C(=O)N[C@@H](CC(C)C)C(=O)N[C@@H](C)C(=O)N[C@@H](C)C(=O)N[C@@H](CCCCN)C(=O)N[C@H](C(=O)N[C@@H](CC(C)C)C(N)=O)[C@@H](C)CC [A11]	45.8441	11.43
CC[C@H](C)[C@H](N)C(=O)N[C@@H](CC(N)=O)C(=O)N[C@@H](CC(C)C)C(=O)N[C@@H](CCCCN)C(=O)N[C@@H](C)C(=O)N[C@H](C(=O)N[C@@H](C)C(=O)N[C@@H](C)C(=O)N[C@@H](CC(C)C)C(=O)N[C@@H](C)C(=O)N[C@@H](CCCCN)C(=O)N[C@@H](CCCCN)C(=O)N[C@H](C(=O)N[C@@H](CC(C)C)C(N)=O)[C@@H](C)CC)C(C)C [V6]	10.4144	-4.76
CC[C@H](C)[C@H](N)C(=O)N[C@@H](CC(N)=O)C(=O)N[C@@H](CC(C)C)C(=O)N[C@@H](CC(N)=O)C(=O)N[C@@H](C)C(=O)N[C@@H](CC(C)C)C(=O)N[C@@H](C)C(=O)N[C@@H](C)C(=O)N[C@@H](CC(C)C)C(=O)N[C@@H](C)C(=O)N[C@@H](CCCCN)C(=O)N[C@@H](CCCCN)C(=O)N[C@H](C(=O)N[C@@H](CC(C)C)C(N)=O)[C@@H](C)CC [N4]	50.001	12.5207
CC[C@H](C)[C@H](N)C(=O)N[C@@H](CC(N)=O)C(=O)N[C@@H](CC(C)C)C(=O)N[C@@H](CCCCN)C(=O)N[C@@H](C)C(=O)N[C@@H](CC(C)C)C(=O)N[C@@H](Cc1c[nH]c2ccccc12)C(=O)N[C@@H](C)C(=O)N[C@@H](CC(C)C)C(=O)N[C@@H](C)C(=O)N[C@@H](CCCCN)C(=O)N[C@@H](CCCCN)C(=O)N[C@H](C(=O)N[C@@H](CC(C)C)C(N)=O)[C@@H](C)CC [W7]	92.6725	70.534
CC[C@H](C)[C@H](N)C(=O)N[C@@H](CC(N)=O)C(=O)N[C@@H](CC(C)C)C(=O)N[C@@H](CCCCN)C(=O)N[C@@H](C)C(=O)N[C@@H](CC(C)C)C(=O)N[C@@H](C)C(=O)N[C@@H](C)C(=O)N[C@@H](CC(C)C)C(=O)N[C@H](C(=O)N[C@@H](CCCCN)C(=O)N[C@@H](CCCCN)C(=O)N[C@H](C(=O)N[C@@H](CC(C)C)C(N)=O)[C@@H](C)CC)[C@@H](C)O [T10]	27.2715	8.853
CC[C@H](C)[C@H](N)C(=O)N[C@@H](CC(N)=O)C(=O)N[C@@H](CC(C)C)C(=O)N[C@@H](CCCCN)C(=O)N[C@@H](C)C(=O)N[C@@H](CC(C)C)C(=O)N[C@@H](C)C(=O)N[C@@H](C)C(=O)N[C@@H](CC(C)C)C(=O)N[C@@H](C)C(=O)N[C@H](C(=O)N[C@@H](CCCCN)C(=O)N[C@H](C(=O)N[C@@H](CC(C)C)C(N)=O)[C@@H](C)CC)[C@@H](C)O [T11]	32.1267	10.2886
